Results reported in PubChem BioAssay AID1963850 (Molecular Pharmacology Branch, DTP, NCI, 2024).

Tested on: 192522-019-R-J2-PDC complex tumor spheroid viability
Test: Anticancer human tumor 192522-019-R-J2-PDC patient-derived colon adenocarcinoma cell line growth inhibition [POLQ]
Settings: for IC50: curve of first compound; for viability, T/C: stronger effect = lower value
Outline: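 Three-cell-type spheroids modelling solid tumor plus stroma served as the readout system; POL inhibitors were tested individually and in combination, concentration ranges set by clinical Cmax where known.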

[1] = second compound 0.0316 µM, first compound 0.00316 µM
[2] = second compound 0.0316 µM, first compound 0.01 µM
[3] = second compound 0.0316 µM, first compound 0.0316 µM
[4] = second compound 0.0316 µM, first compound 0.1 µM
[5] = second compound 0.0316 µM, first compound 0.316 µM
[6] = second compound 0.0316 µM, first compound 1 µM
[7] = second compound 0.1 µM, first compound 0.00316 µM
[8] = second compound 0.1 µM, first compound 0.01 µM
[9] = second compound 0.1 µM, first compound 0.0316 µM
[10] = second compound 0.1 µM, first compound 0.1 µM
[11] = second compound 0.1 µM, first compound 0.316 µM
[12] = second compound 0.1 µM, first compound 1 µM
[13] = second compound 0.316 µM, first compound 0.00316 µM
[14] = second compound 0.316 µM, first compound 0.01 µM
[15] = second compound 0.316 µM, first compound 0.0316 µM
[16] = second compound 0.316 µM, first compound 0.1 µM
[17] = second compound 0.316 µM, first compound 0.316 µM
[18] = second compound 0.316 µM, first compound 1 µM
[19] = second compound 1 µM, first compound 0.00316 µM
[20] = second compound 1 µM, first compound 0.01 µM
[21] = second compound 1 µM, first compound 0.0316 µM
[22] = second compound 1 µM, first compound 0.1 µM
[23] = second compound 1 µM, first compound 0.316 µM
[24] = second compound 1 µM, first compound 1 µM
[25] = second compound 3.16 µM, first compound 0.00316 µM
[26] = second compound 3.16 µM, first compound 0.01 µM
[27] = second compound 3.16 µM, first compound 0.0316 µM
[28] = second compound 3.16 µM, first compound 0.1 µM
[29] = second compound 3.16 µM, first compound 0.316 µM
[30] = second compound 3.16 µM, first compound 1 µM
[31] = second compound 10 µM, first compound 0.00316 µM
[32] = second compound 10 µM, first compound 0.01 µM
[33] = second compound 10 µM, first compound 0.0316 µM
[34] = second compound 10 µM, first compound 0.1 µM
[35] = second compound 10 µM, first compound 0.316 µM
[36] = second compound 10 µM, first compound 1 µM
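Further: spheroids exposed to drugs for seven days before reading.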
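Wherever viability, T/C is given: 100% = DMSO vehicle control viability in luminescence.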

## C=CCn1c(=O)c2cnc(Nc3ccc(N4CCN(C)CC4)cc3)nc2n1-c1cccc(C(C)(C)O)n1 + Cc1cccc(N(C)C(=O)C2C(O)CCN2c2nc(C)cc(C(F)(F)F)c2C#N)c1
Second compound 0.0316 µM
  IC50: 796 nM
Second compound 0.1 µM
  IC50: 812 nM
Second compound 0.316 µM
  IC50: 893 nM
Second compound 1 µM
  IC50: > 1000 nM
Second compound 3.16 µM
  IC50: > 1000 nM
Second compound 10 µM
  IC50: 916 nM
[1]
  viability, T/C: 98.9%
[2]
  viability, T/C: 106%
[3]
  viability, T/C: 102%
[4]
  viability, T/C: 108%
[5]
  viability, T/C: 92.6%
[6]
  viability, T/C: 39.5%
[7]
  viability, T/C: 99.7%
[8]
  viability, T/C: 99.3%
[9]
  viability, T/C: 102%
[10]
  viability, T/C: 106%
[11]
  viability, T/C: 90%
[12]
  viability, T/C: 40.4%
[13]
  viability, T/C: 111%
[14]
  viability, T/C: 110%
[15]
  viability, T/C: 105%
[16]
  viability, T/C: 110%
[17]
  viability, T/C: 98.6%
[18]
  viability, T/C: 44.4%
[19]
  viability, T/C: 112%
[20]
  viability, T/C: 95.2%
[21]
  viability, T/C: 107%
[22]
  viability, T/C: 109%
[23]
  viability, T/C: 105%
[24]
  viability, T/C: 50.4%
[25]
  viability, T/C: 116%
[26]
  viability, T/C: 110%
[27]
  viability, T/C: 109%
[28]
  viability, T/C: 106%
[29]
  viability, T/C: 89%
[30]
  viability, T/C: 56.9%
[31]
  viability, T/C: 109%
[32]
  viability, T/C: 115%
[33]
  viability, T/C: 119%
[34]
  viability, T/C: 105%
[35]
  viability, T/C: 102%
[36]
  viability, T/C: 45.6%

## CC[C@@]1(O)C(=O)OCc2c1cc1n(c2=O)Cc2cc3c(CN(C)C)c(O)ccc3nc2-1 + Cc1cccc(N(C)C(=O)C2C(O)CCN2c2nc(C)cc(C(F)(F)F)c2C#N)c1
Second compound 0.0316 µM
  IC50: > 100 nM
Second compound 0.1 µM
  IC50: > 100 nM
Second compound 0.316 µM
  IC50: > 100 nM
Second compound 1 µM
  IC50: > 100 nM
Second compound 3.16 µM
  IC50: > 100 nM
Second compound 10 µM
  IC50: > 100 nM
Second compound 0.0316 µM, first compound 0.000316 µM
  viability, T/C: 116%
Second compound 0.0316 µM, first compound 0.001 µM
  viability, T/C: 93.7%
[1]
  viability, T/C: 103%
[2]
  viability, T/C: 99.2%
[3]
  viability, T/C: 98.7%
[4]
  viability, T/C: 62.4%
Second compound 0.1 µM, first compound 0.000316 µM
  viability, T/C: 106%
Second compound 0.1 µM, first compound 0.001 µM
  viability, T/C: 98.4%
[7]
  viability, T/C: 102%
[8]
  viability, T/C: 94.5%
[9]
  viability, T/C: 88%
[10]
  viability, T/C: 64.5%
Second compound 0.316 µM, first compound 0.000316 µM
  viability, T/C: 102%
Second compound 0.316 µM, first compound 0.001 µM
  viability, T/C: 106%
[13]
  viability, T/C: 104%
[14]
  viability, T/C: 102%
[15]
  viability, T/C: 93.8%
[16]
  viability, T/C: 70%
Second compound 1 µM, first compound 0.000316 µM
  viability, T/C: 106%
Second compound 1 µM, first compound 0.001 µM
  viability, T/C: 106%
[19]
  viability, T/C: 111%
[20]
  viability, T/C: 102%
[21]
  viability, T/C: 96.2%
[22]
  viability, T/C: 75.2%
Second compound 3.16 µM, first compound 0.000316 µM
  viability, T/C: 99.2%
Second compound 3.16 µM, first compound 0.001 µM
  viability, T/C: 114%
[25]
  viability, T/C: 115%
[26]
  viability, T/C: 98.4%
[27]
  viability, T/C: 102%
[28]
  viability, T/C: 79.5%
Second compound 10 µM, first compound 0.000316 µM
  viability, T/C: 110%
Second compound 10 µM, first compound 0.001 µM
  viability, T/C: 107%
[31]
  viability, T/C: 120%
[32]
  viability, T/C: 102%
[33]
  viability, T/C: 95.3%
[34]
  viability, T/C: 75%

## CCc1c2c(nc3ccc(O)cc13)-c1cc3c(c(=O)n1C2)COC(=O)[C@]3(O)CC + Cc1cccc(N(C)C(=O)C2C(O)CCN2c2nc(C)cc(C(F)(F)F)c2C#N)c1
Second compound 0.0316 µM
  IC50: 131 nM
Second compound 0.1 µM
  IC50: 136 nM
Second compound 0.316 µM
  IC50: 158 nM
Second compound 1 µM
  IC50: 229 nM
Second compound 3.16 µM
  IC50: 234 nM
Second compound 10 µM
  IC50: 112 nM
[1]
  viability, T/C: 95.4%
[2]
  viability, T/C: 63.6%
[3]
  viability, T/C: 72.2%
[4]
  viability, T/C: 53.6%
[5]
  viability, T/C: 40.3%
[6]
  viability, T/C: 31.1%
[7]
  viability, T/C: 91.5%
[8]
  viability, T/C: 66.2%
[9]
  viability, T/C: 75.8%
[10]
  viability, T/C: 52.3%
[11]
  viability, T/C: 36.7%
[12]
  viability, T/C: 33.5%
[13]
  viability, T/C: 104%
[14]
  viability, T/C: 72.8%
[15]
  viability, T/C: 70.5%
[16]
  viability, T/C: 60.7%
[17]
  viability, T/C: 38.8%
[18]
  viability, T/C: 33.9%
[19]
  viability, T/C: 95.1%
[20]
  viability, T/C: 78.1%
[21]
  viability, T/C: 71.9%
[22]
  viability, T/C: 61%
[23]
  viability, T/C: 44.5%
[24]
  viability, T/C: 35%
[25]
  viability, T/C: 101%
[26]
  viability, T/C: 82.6%
[27]
  viability, T/C: 79.1%
[28]
  viability, T/C: 57.3%
[29]
  viability, T/C: 45.8%
[30]
  viability, T/C: 36.4%
[31]
  viability, T/C: 97.6%
[32]
  viability, T/C: 69.4%
[33]
  viability, T/C: 68.8%
[34]
  viability, T/C: 49.4%
[35]
  viability, T/C: 42.6%
[36]
  viability, T/C: 36.5%
